Drawing on PubChem BioAssay AID1259408 (Genetic Toxicology Data Bank (GENE-TOX), 2018), this text covers mutagenic call and call for twelve compounds.

This data set relates to GENE-TOX genotoxicity assays, various organisms and cells. The experiment in a line: GENE-TOX mutagenicity studies. Particulars: for call: Assay Type: In vivo carcinogenicity studies. The text has this: GENE-TOX provides genetic toxicology (mutagenicity) test data from expert peer review of open scientific literature for more than 3,000 chemicals from the United States Environmental Protection Agency (EPA). GENE-TOX was established to select assay systems for evaluation, review data in the scientific literature, and recommend proper testing protocols and evaluation procedures for these systems.
GENE-TOX covers the years 1991 - 1998. It is no longer updated.
This is an archive assay for GENE-TOX mutagenicity studies.

Where [1] appears, read: Species/Cell Type: Hordeum vulgare (barley), Assay Type: Chromosome aberrations, Assay Code: HOC+D, Dose Response: With dose response, Evaluation Type: Evaluation A (Pre-1980).
Where [2] appears, read: Species/Cell Type: Human, Assay Type: Sister-chromatid exchange (SCE) in vitro, Assay Code: SC1+D, Dose Response: With dose response, Evaluation Type: Evaluation B (Post-1980).
Where [3] appears, read: Species/Cell Type: Salmonella typhimurium (one or more of the five standard strains: TA98, TA100, TA1535, TA1537, and TA1538), Assay Type: Histidine reverse gene mutation, Ames assay, Assay Code: SAL+, Evaluation Type: Evaluation A (Pre-1980).
The mark [4] stands for this setting: Species/Cell Type: Nonhuman, Assay Code: CCG+, Evaluation Type: Evaluation A (Pre-1980).
Where [5] appears, read: Species/Cell Type: Drosophila melanogaster, Assay Type: Sex-linked recessive lethal gene mutation, Assay Code: SRL+, Evaluation Type: Evaluation A (Pre-1980).
[6] abbreviates: Species/Cell Type: Mouse, Sex: Male, Assay Type: Sperm morphology, Assay Code: SPI+, Evaluation Type: Evaluation A (Pre-1980).

The source made the active and inactive calls. No rule for the calls is given here.

On to `CCOP(=S)(OCC)SCSCC`, for which the mutagenic call (Species/Cell Type: Bacillus subtilis (H17 vs M45), Assay Type: Rec-assay, spot test, DNA effects (bacterial DNA repair), Assay Code: REWT, Evaluation Type: Evaluation A (Pre-1980)) was “no conclusion”; the mutagenic call (Species/Cell Type: Drosophila melanogaster, Assay Type: Sex-linked recessive lethal gene mutation, Assay Code: SRL-, Evaluation Type: Evaluation A (Pre-1980)) is “inactive; negative”; the mutagenic call (Species/Cell Type: Escherichia coli WP2 UVRA, Assay Type: Tryptophan reverse gene mutation, Assay Code: WPU-*, Activation: With metabolic activation, Evaluation Type: Evaluation A (Pre-1980)) was “inactive; negative”; the mutagenic call (Species/Cell Type: Escherichia coli polA (W3119 vs P3478), Assay Type: Rec-assay, DNA effects (bacterial DNA repair), Assay Code: RE1T, Evaluation Type: Evaluation A (Pre-1980)) was “no conclusion”; the mutagenic call under setting [1] is “active; positive”; the mutagenic call (Species/Cell Type: Human diploid fibroblasts, Assay Type: Unscheduled DNA synthesis (UDS) in vitro, DNA effects, Assay Code: UDH-, Evaluation Type: Evaluation A (Pre-1980)) is “inactive; negative”. Moreover, the mutagenic call runs as follows: under setting [2], “active; positive”; (Species/Cell Type: Mammalian polychromatic erythrocytes, Assay Type: Micronucleus test, chromosome aberrations, Assay Code: MNT+U, Dose Response: Unconfirmed positive response, Evaluation Type: Evaluation B (Post-1980)) “active; positive”; (Species/Cell Type: Saccharomyces cerevisiae, Assay Type: Mitotic recombination or gene conversion, Assay Code: YEH-, Evaluation Type: Evaluation A (Pre-1980)) “inactive; negative”; (Species/Cell Type: Salmonella typhimurium (one or more of the five standard strains: TA98, TA100, TA1535, TA1537, and TA1538), Assay Type: Histidine reverse gene mutation, Ames assay, Assay Code: SALT, Evaluation Type: Evaluation A (Pre-1980)) “no conclusion”.
As to `Nc1ccc([N+](=O)[O-])cc1O`, the mutagenic call (Species/Cell Type: Neurospora crassa, Assay Type: Aneuploidy, chromosome aberrations, Assay Code: NEN-, Evaluation Type: Evaluation A (Pre-1980)) was “inactive; negative”; the mutagenic call (Species/Cell Type: Rodents, Sex: Male, Assay Type: Dominant lethal test, Assay Code: DLT-, Evaluation Type: Evaluation A (Pre-1980)) was “inactive; negative”; the mutagenic call under setting [3] is “active; positive”.
For the compound `C/C=C/c1ccc2c(c1)OCO2`, the call under setting [4] is “active; positive”.
As for `C=CCOC(=O)CC(C)C`, under setting [4], the call was “active; positive”.
Turning to `CC1=C(/C=C/C(C)=C/C=C/C(C)=C\C(=O)O)C(C)(C)CCC1`, the mutagenic call under setting [2] is “active; positive”.
As to `CCOC(=O)Nc1ncc(-c2ccc(Cl)cc2)[nH]1`, the mutagenic call (Species/Cell Type: Salmonella typhimurium, Assay Type: Forward and reverse gene mutation, host-mediated assay, Assay Code: HMAT, Evaluation Type: Evaluation A (Pre-1980)) was “no conclusion”.
For the compound `CS(=O)(=O)OCCCCOS(C)(=O)=O`, the mutagenic call runs as follows: (Species/Cell Type: Arabidopsis species, Assay Type: Gene mutation, Assay Code: ARM+, Evaluation Type: Evaluation A (Pre-1980)) “active; positive”; (Species/Cell Type: Chinese hamster ovary (CHO) cells, Assay Type: Forward gene mutation at the HPRT locus, Assay Code: CHO+, Evaluation Type: Evaluation B (Post-1980)) “active; positive”; under setting [5], “active; positive”; (Species/Cell Type: Escherichia coli polA (W3119 vs P3478), Assay Type: Rec-assay, DNA effects (bacterial DNA repair), Assay Code: RE1+, Evaluation Type: Evaluation A (Pre-1980)) “active; positive”; under setting [1], “active; positive”; (Species/Cell Type: Human lymphocytes or leukocytes, Assay Type: Chromosome aberrations in vitro, Assay Code: CY7+D, Dose Response: With dose response, Evaluation Type: Evaluation A (Pre-1980)) “active; positive”. The mutagenic call (Species/Cell Type: Human lymphocytes, Assay Type: Sister-chromatid exchange (SCE) in vitro, Assay Code: SCL+D, Dose Response: With dose response, Evaluation Type: Evaluation A (Pre-1980)) is “active; positive”; the mutagenic call (Species/Cell Type: Human lymphocytes, Assay Type: Sister-chromatid exchange (SCE) in vivo, Assay Code: SCY+, Evaluation Type: Evaluation B (Post-1980)) was “active; positive”; the mutagenic call (Species/Cell Type: Human, Assay Type: Sister-chromatid exchange (SCE) in vitro, Assay Code: SC1+D, Dose Response: With dose response, Evaluation Type: Evaluation A (Pre-1980)) was “active; positive”; the mutagenic call (Species/Cell Type: Mammalian germ cells, Sex: Male, Assay Type: Chromosome aberrations in vivo, Assay Code: CY9T, Evaluation Type: Evaluation A (Pre-1980)) was “no conclusion”; the mutagenic call (Species/Cell Type: Mammalian polychromatic erythrocytes, Assay Type: Micronucleus test, chromosome aberrations, Assay Code: MNT+, Evaluation Type: Evaluation B (Post-1980)) was “active; positive”; the mutagenic call (Species/Cell Type: Mammalian polychromatic erythrocytes, Assay Type: Micronucleus test, chromosome aberrations, Assay Code: MNTT, Evaluation Type: Evaluation A (Pre-1980)) is given as “no conclusion”. The mutagenic call is “active; positive” (Species/Cell Type: Mouse lymphoma (L5178Y) cells, Assay Type: Forward gene mutation at the thymidine kinase (TK) locus, chromosome aberrations, Assay Code: L51+, Evaluation Type: Evaluation A (Pre-1980)); “active; positive” under setting [6]; “active; positive” (Species/Cell Type: Neurospora crassa, Assay Type: Forward gene mutation, Assay Code: NEF+, Evaluation Type: Evaluation A (Pre-1980)); “active; positive” (Species/Cell Type: Nonhuman bone marrow, Assay Type: Chromosome aberrations, in vivo, Assay Code: CY#+D, Dose Response: With dose response, Evaluation Type: Evaluation A (Pre-1980)); “active; positive” (Species/Cell Type: Nonhuman, Assay Type: Sister-chromatid exchange (SCE) in vitro, Assay Code: SC2+, Evaluation Type: Evaluation B (Post-1980)); “active; positive” (Species/Cell Type: Rabbit, Sex: Male, Assay Type: Sperm morphology, Assay Code: SPR+, Evaluation Type: Evaluation A (Pre-1980)). The mutagenic call (Species/Cell Type: Rodents, Sex: Male, Assay Type: Dominant lethal test, Assay Code: DLT+, Evaluation Type: Evaluation A (Pre-1980)) is “active; positive”. Moreover, under “Species/Cell Type: Nonhuman, Assay Code: CCGT, Evaluation Type: Evaluation A (Pre-1980)”, the call was “no conclusion”.
Regarding `C[C@]12CCC(=O)C=C1CC[C@@H]1[C@@H]2CC[C@@]2(C)[C@H]1CC[C@]2(C)O`, the mutagenic call (Species/Cell Type: Human, Sex: Male, Assay Type: Sperm morphology, Assay Code: SPH-, Evaluation Type: Evaluation A (Pre-1980)) was “inactive; negative”.
Consider `S=[Se]=S`, for which, under setting [4], the call was “active; positive”.
Consider `Nc1nc(-c2ccc([N+](=O)[O-])o2)cs1`, for which the mutagenic call by setting is: (Species/Cell Type: Escherichia coli WP2, Assay Type: Tryptophan reverse gene mutation, Assay Code: WP2+, Evaluation Type: Evaluation A (Pre-1980)) “active; positive”; (Species/Cell Type: Escherichia coli WP2 UVRA, Assay Type: Tryptophan reverse gene mutation, Assay Code: WPU-, Evaluation Type: Evaluation A (Pre-1980)) “inactive; negative”; (Species/Cell Type: Nonhuman, Assay Type: Sister-chromatid exchange (SCE) in vitro, Assay Code: SC2+D, Dose Response: With dose response, Evaluation Type: Evaluation B (Post-1980)) “active; positive”; under setting [3], “active; positive”.
Take `C[C@]12CC[C@@H]3c4ccc(O)cc4CC[C@H]3[C@@H]1CC[C@@H]2O`: the mutagenic call is, setting by setting: (Species/Cell Type: Human lymphocytes, Assay Type: Sister-chromatid exchange (SCE) in vitro, Assay Code: SCL-*, Activation: With metabolic activation, Evaluation Type: Evaluation B (Post-1980)) “inactive; negative”; (Species/Cell Type: Human lymphocytes, Assay Type: Sister-chromatid exchange (SCE) in vitro, Assay Code: SCL-, Evaluation Type: Evaluation B (Post-1980)) “inactive; negative”; (Species/Cell Type: Human, Assay Type: Sister-chromatid exchange (SCE) in vitro, Assay Code: SC1-, Evaluation Type: Evaluation B (Post-1980)) “inactive; negative”; under setting [6], “active; positive”; (Species/Cell Type: Nonhuman, Assay Type: Sister-chromatid exchange (SCE) in vitro, Assay Code: SC2T, Evaluation Type: Evaluation B (Post-1980)) “no conclusion”; (Species/Cell Type: Rat, Sex: Male, Assay Type: Sperm morphology, Assay Code: SPA+, Evaluation Type: Evaluation A (Pre-1980)) “active; positive”. Moreover, under setting [4], the call is “active; positive”.
As for `ClCC1OC1CCl` (stereo unspecified), the mutagenic call under setting [5] was “active; positive”.
